From patent US20210207082A1, “SPHERICAL 3D TUMOR SPHEROID” (KOREA INSTITUTE OF SCIENCE AND TECHNOLOGY, priority 2019, published 2021)

Legend:
[1] = tested on: BMSC+MDA-MB-231 spheroid; assay: Real Time-Glo MT cell viability assay, 3D multicellular tumor spheroid; assay type: cell-based; conditions: Homo sapiens, 48 h; 10 μM doxorubicin for two days
[2] = tested on: ASC+MDA-MB-231 spheroid; assay: as above
[3] = tested on: FIB+MDA-MB-231 spheroid; assay: Real Time-Glo Annexin V apoptosis assay, 3D spheroid; assay type: cell-based, human; conditions: 10 μM doxorubicin, 48 hours
Method: (§1) Apoptotic and necrotic cells in spheroids were assayed using Real Time-Glo™ Annexin V apoptosis and necrosis assays. Real Time-Glo™ Annexin V apoptosis and necrosis assays were performed in combination with a cell viability assay. […] Thereafter, 2X apoptosis and necrosis formulations of the same volume (100 μL) were added to each well according to standard protocol proposed in manufacturer's instructions.
(§2) To investigate drug sensitivity depending on the viability against doxorubicin in the spheroids, Real Time-Glo™ Annexin V apoptosis and necrosis assays were performed. If apoptosis is induced by a drug response, a cell membrane is reversed to expose phosphatidyl-serine (PS), and an apoptotic cell can be analyzed by binding PS with Annexin V detected by a luminescence signal. A necrotic cell is detected by binding DNA with PI (green) that produces a fluorescence signal when the necrotic cell invades into a cell and a cell membrane loses integrity.

[4] = tested on: ASC+MDA-MB-231 spheroid; assay: as above; assay type: cell-based, human; conditions: 10 μM doxorubicin, 48 hours
Method: as §1, §2

[5] = tested on: BMSC+MDA-MB-231 spheroid; assay: as above; assay type: cell-based, human; conditions: 10 μM doxorubicin, 48 hours
Method: as §1, §2

[6] = tested on: three types of 3D spheroids versus 2D monolayer; assay: 3D versus 2D comparison of cell viability; assay type: cell-based, human; conditions: doxorubicin
[7] = tested on: FIB+MDA-MB-231 spheroid; assay: Real Time-Glo MT cell viability assay, 3D multicellular tumor spheroid; assay type: cell-based; conditions: Homo sapiens, 48 h; 10 μM doxorubicin for two days
[8] = tested on: 3D multicellular tumor spheroids (ASC, BMSC or FIB + MDA-MB-231); assay: Necrosis (PI) assay, three types of 3D spheroids; assay type: cell-based, human; conditions: 10 μM doxorubicin, 48 hours
Method: as §1, §2

`COc1cccc2c1C(=O)c1c(O)c3c(c(O)c1C2=O)C[C@@](O)(C(=O)CO)C[C@@H]3O[C@H]1C[C@H](N)[C@H](O)[C@H](C)O1` [doxorubicin] was tested, and the viability at 10 µM [1] was 48.3%, the cell viability ([2]; 10 μM doxorubicin for two days) was 56.67% and the “viability, compared with other co-culture ratios” value ([2]; ASC:MDA-MB-231 co-culture ratio 5:5, 10 μM doxorubicin, 48 hours) was “highest”. For the same compound, the “apoptosis (Annexin V) fold change” value [3] was “about 13 times”, the “apoptosis (Annexin V) fold change” value [4] was 9 fold and the “apoptosis (Annexin V) fold change” value [5] was 10 fold. For the same compound, the “drug sensitivity of 3D spheroids compared with 2D monolayer” value [6] was “lower drug sensitivity”, the viability at 10 µM [7] was 43% and the “necrosis (PI), difference between spheroid types” value [8] was “No significant difference”.
